Reference: patent US20250295646A1, “METHODS OF USE OF T-TYPE CALCIUM CHANNEL MODULATORS” (Praxis Precision Medicines, Inc., priority 2022, published 2025)

Tested on: adult patients with essential tremor
Test: Example 16: video-reviewed TETRAS performance subscale and upper limb score; on TETRAS Performance Subscale Total Score by Video Review, Change from Baseline, Mean (SD): test concentration or dose not given here; on TETRAS Performance Subscale Total Score by Video Review, Change from Baseline, Median: test concentration or dose not given here; on TETRAS Performance Subscale Total Score by Video Review, Mean (SD): test concentration or dose not given here; on TETRAS Performance Subscale Total Score by Video Review, Median: test concentration or dose not given here
Assay type: in vivo, human
Conditions: Part B, Formula (I) arm (N = 6)
From the text: Video-reviewed TETRAS Analyses Video reviewed TETRAS assessments were generally consistent with those conducted at the clinic. Video reviewed TETRAS performance subscale total scores are summarized for Part A, the open-label titration phase of Part B, and the randomized withdrawal phase of Part B in Table 42, Table 43, and Table 44.
Video reviewed upper limb score values were generally consistent with those conducted at the clinic and are summarized for Part A, the open-label titration phase of Part B, and the randomized withdrawal phase of Part B in Table 45, Table 46, and Table 47, respectively.

SMILES: CC(C)(C)NC(=O)CN1CCC(CNC(=O)c2cc(F)cc(Cl)c2)CC1 [compound of formula (I), N-((1-(2-(tert-butylamino)-2-oxoethyl)piperidin-4-yl)methyl)-3-chloro-5-fluorobenzamide]
- TETRAS Performance Subscale Total Score by Video Review, Change from Baseline, Mean (SD) (Day 42, Pre - dose): −1.33 (2.338)
- TETRAS Performance Subscale Total Score by Video Review, Change from Baseline, Median (Day 42, Pre - dose): −1.00
- TETRAS Performance Subscale Total Score by Video Review, Mean (SD) (Day 42, Pre - dose): 21.00 (5.263)
- TETRAS Performance Subscale Total Score by Video Review, Median (Day 42, Pre - dose): 22.25
- TETRAS Performance Subscale Total Score by Video Review, Percentage Change from Baseline in Tremor Amplitude, Mean (SD) (Day 42, Pre - dose): −8.23 (14.278) %
- TETRAS Performance Subscale Total Score by Video Review, Percentage Change from Baseline in Tremor Amplitude, Median (Day 42, Pre - dose): −6.88%
- TETRAS Upper Limb Score by Video Review, Change from Baseline, Mean (SD) (Day 42, Pre - dose): −0.75 (0.935)
- TETRAS Upper Limb Score by Video Review, Change from Baseline, Median (Day 42, Pre - dose): −0.50
- TETRAS Upper Limb Score by Video Review, Mean (SD) (Day 42, Pre - dose): 9.17 (1.862)
- TETRAS Upper Limb Score by Video Review, Median (Day 42, Pre - dose): 9.25
- TETRAS Upper Limb Score by Video Review, Percentage Change from Baseline in Tremor Amplitude, Mean (SD) (Day 42, Pre - dose): −12.31 (14.247) %
- TETRAS Upper Limb Score by Video Review, Percentage Change from Baseline in Tremor Amplitude, Median (Day 42, Pre - dose): −9.15%
- TETRAS Performance Subscale Total Score by Video Review, Change from Baseline, Mean (SD) (Day 56): −1.33 (4.771)
- TETRAS Performance Subscale Total Score by Video Review, Change from Baseline, Median (Day 56): −0.50
- TETRAS Performance Subscale Total Score by Video Review, Change from Randomization, Mean (SD) (Day 56): 1.08 (2.311)
- TETRAS Performance Subscale Total Score by Video Review, Change from Randomization, Median (Day 56): 0.75
- TETRAS Performance Subscale Total Score by Video Review, Mean (SD) (Day 56): 21.00 (6.542)
- TETRAS Performance Subscale Total Score by Video Review, Median (Day 56): 21.75
- TETRAS Performance Subscale Total Score by Video Review, Percentage Change from Baseline in Tremor Amplitude, Mean (SD) (Day 56): −6.83 (27.753) %
- TETRAS Performance Subscale Total Score by Video Review, Percentage Change from Baseline in Tremor Amplitude, Median (Day 56): −3.23%
- TETRAS Performance Subscale Total Score by Video Review, Percentage Change from Randomization in Tremor Amplitude, Mean (SD) (Day 56): 6.68 (14.469) %
- TETRAS Performance Subscale Total Score by Video Review, Percentage Change from Randomization in Tremor Amplitude, Median (Day 56): 5.12%
- TETRAS Upper Limb Score by Video Review, Change from Baseline, Mean (SD) (Day 56): −0.75 (2.115)
- TETRAS Upper Limb Score by Video Review, Change from Baseline, Median (Day 56): −0.25
- TETRAS Upper Limb Score by Video Review, Change from Randomization, Mean (SD) (Day 56): 0.75 (0.612)
- TETRAS Upper Limb Score by Video Review, Change from Randomization, Median (Day 56): 0.50
- TETRAS Upper Limb Score by Video Review, Mean (SD) (Day 56): 9.17 (2.658)
- TETRAS Upper Limb Score by Video Review, Median (Day 56): 10.00
- TETRAS Upper Limb Score by Video Review, Percentage Change from Baseline in Tremor Amplitude, Mean (SD) (Day 56): −10.13 (31.224) %
- TETRAS Upper Limb Score by Video Review, Percentage Change from Baseline in Tremor Amplitude, Median (Day 56): −4.57%
- TETRAS Upper Limb Score by Video Review, Percentage Change from Randomization in Tremor Amplitude, Mean (SD) (Day 56): 12.91 (10.020) %
- TETRAS Upper Limb Score by Video Review, Percentage Change from Randomization in Tremor Amplitude, Median (Day 56): 9.15%
- TETRAS Performance Subscale Total Score by Video Review, Change from Baseline, Mean (SD) (Day 70): 0.60 (2.104)
- TETRAS Performance Subscale Total Score by Video Review, Change from Baseline, Median (Day 70): 0.50
- TETRAS Performance Subscale Total Score by Video Review, Change from Randomization, Mean (SD) (Day 70): 3.60 (3.343)
- TETRAS Performance Subscale Total Score by Video Review, Change from Randomization, Median (Day 70): 4.50
- TETRAS Performance Subscale Total Score by Video Review, Mean (SD) (Day 70): 22.00 (4.962)
- TETRAS Performance Subscale Total Score by Video Review, Median (Day 70): 22.50
- TETRAS Performance Subscale Total Score by Video Review, Percentage Change from Baseline in Tremor Amplitude, Mean (SD) (Day 70): 3.98 (13.794) %
- TETRAS Performance Subscale Total Score by Video Review, Percentage Change from Baseline in Tremor Amplitude, Median (Day 70): 3.53%
- TETRAS Performance Subscale Total Score by Video Review, Percentage Change from Randomization in Tremor Amplitude, Mean (SD) (Day 70): 21.30 (20.204) %
- TETRAS Performance Subscale Total Score by Video Review, Percentage Change from Randomization in Tremor Amplitude, Median (Day 70): 27.66%
- TETRAS Upper Limb Score by Video Review, Change from Baseline, Mean (SD) (Day 70): 0.30 (0.908)
- TETRAS Upper Limb Score by Video Review, Change from Baseline, Median (Day 70): 0.50
- TETRAS Upper Limb Score by Video Review, Change from Randomization, Mean (SD) (Day 70): 1.80 (2.139)
- TETRAS Upper Limb Score by Video Review, Change from Randomization, Median (Day 70): 2.50
- TETRAS Upper Limb Score by Video Review, Mean (SD) (Day 70): 9.80 (1.924)
- TETRAS Upper Limb Score by Video Review, Median (Day 70): 9.50
- TETRAS Upper Limb Score by Video Review, Percentage Change from Baseline in Tremor Amplitude, Mean (SD) (Day 70): 5.17 (15.525) %
- TETRAS Upper Limb Score by Video Review, Percentage Change from Baseline in Tremor Amplitude, Median (Day 70): 9.15%
- TETRAS Upper Limb Score by Video Review, Percentage Change from Randomization in Tremor Amplitude, Mean (SD) (Day 70): 25.58 (31.214) %
- TETRAS Upper Limb Score by Video Review, Percentage Change from Randomization in Tremor Amplitude, Median (Day 70): 38.10%
